Key:
[1] = system: PMA-induced release of HB-EGF from U-937 cells; experiment: ELISA-based HB-EGF release assay, PMA-stimulated U-937 cells; type: cell-based; conditions: Homo sapiens, murine (m) and chimeric (ch) antibodies 3 μg/ml, Batimastat 10 μM, PMA 25 ng/ml, 6 hours
Protocol: Complementary to Example 29 described above, ELISA-based HB-EGF release assays were performed to verify the inhibitory effects of the antibodies of the present disclosure on PMA-induced release of endogenous HB-EGF from human U-937 cells.
The production of the recombinant antibody material that was used in this example is identical to the one described in Example 25. The ELISA-based HB-EGF release assay that was used in this example is identical with the one described in Example 30, with the only difference, that U-937 (European Collection of Authenticated Cell Cultures, UK) cells were used instead of THP-1 (American Type Culture Collection, USA) cells.

[2] = system: PMA-induced release of IL-6R from U-937 cells; experiment: ELISA-based IL-6R release assay, PMA-stimulated U-937 cells; type: cell-based; conditions: Homo sapiens, U-937, 1 h, Batimastat 10 μM, PMA 62.5 ng/ml
Protocol: Complementary to Example 26 described above, ELISA-based IL-6R release assays were performed to verify the inhibitory effects of the antibodies of the present disclosure on PMA-induced release of endogenous IL-6R from human U-937 cells.
In brief, on day 1, Nunc black MaxiSorp® 96-well plates (Thermo Fisher Scientific, USA) were coated overnight with 100 μl per well of mouse anti-human IL-6R capture antibody (provided as part of the DuoSet ELISA kit) at 2 μg/ml TBS at 4° C. On day 2, the capture antibody solution was removed and MaxiSorp® plates were blocked with 300 μl per well of TBS, 1% BSA at room temperature for 1-2 hours. […] Using an infinite M1000 (Tecan Group, Switzerland) microplate reader, the fluorescence of each well was collected at an excitation wavelength of 435 nm and an emission wavelength of 555 nm. […]

## CNC(=O)[C@H](Cc1ccccc1)NC(=O)[C@H](CC(C)C)[C@H](CSc1cccs1)C(=O)NO [Batimastat]
[1]
  inhibition at 10 µM: 100%
[2]; murine (m) and chimeric (ch) antibodies 3 μg/ml
  inhibition at 10 µM: 91.6%
[2]; recombinant murine antibodies 1 μg/ml
  inhibition at 10 µM: 86.6%
